{
  "source": "the NIST ThermoML archive (doi:10.1016/j.fluid.2016.07.004)",
  "conditions": "Liquid, X-ray view cell",
  "note": "Numbers after ± are expanded uncertainties.",
  "data": [
    {"smiles": "c1ccccc1", "note": "[benzene]", "values": [
      {"measurement": "vapor or sublimation pressure", "setting": "378.35 K", "value": "205 ± 17", "unit": "kPa"},
      {"measurement": "vapor or sublimation pressure", "setting": "401.25 K", "value": "366 ± 30", "unit": "kPa"},
      {"measurement": "vapor or sublimation pressure", "setting": "421.85 K", "value": "572 ± 47", "unit": "kPa"},
      {"measurement": "vapor or sublimation pressure", "setting": "437.45 K", "value": "778 ± 63", "unit": "kPa"},
      {"measurement": "vapor or sublimation pressure", "setting": "460.35 K", "value": "1173 ± 95", "unit": "kPa"},
      {"measurement": "vapor or sublimation pressure", "setting": "480.45 K", "value": "1622 ± 130", "unit": "kPa"},
      {"measurement": "vapor or sublimation pressure", "setting": "500.15 K", "value": "2183 ± 180", "unit": "kPa"},
      {"measurement": "vapor or sublimation pressure", "setting": "520.05 K", "value": "2877 ± 230", "unit": "kPa"}
    ]}
  ]
}
